In brackets after ≈: the same amount, converted by molar mass. Activity calls are given as the source filed them. The calls are words filed in the database; no cut-off is given here.
What was measured:
[1] = system: Mycobacterium tuberculosis; test: Bacteriostatic activity against rifampicin, isoniazid, streptomycin, ethambutol and pyrazinamide-resistant Mycobacterium tuberculosis MS-115 assessed as growth inhibition; assay type: functional
[2] = system: Mycobacterium tuberculosis; test: Bacteriostatic activity against rifampicin, isoniazid, streptomycin, ethambutol and pyrazinamide-resistant Mycobacterium tuberculosis MS-115 assessed as growth inhibition at 2 to 200 ug/mL relative to control; assay type: functional, organism-based
[3] = system: Mycobacterium tuberculosis; test: Bacteriostatic activity against rifampicin, isoniazid, streptomycin, ethambutol and pyrazinamide-resistant Mycobacterium tuberculosis MS-115 assessed as growth inhibition at 20 ug/mL relative to control; assay type: functional; conditions: read-out: GI
[4] = system: Mycobacterium tuberculosis; test: Bacteriostatic activity against rifampicin, isoniazid, streptomycin, ethambutol and pyrazinamide-resistant Mycobacterium tuberculosis MS-115 assessed as growth inhibition at 50 ug/mL relative to control; assay type: functional; conditions: read-out: GI
[5] = system: Mycobacterium tuberculosis; test: Bacteriostatic activity against rifampicin, isoniazid, streptomycin, ethambutol and pyrazinamide-resistant Mycobacterium tuberculosis MS-115 assessed as growth inhibition at 200 ug/mL relative to control; assay type: functional; conditions: read-out: GI
[6] = system: Mycobacterium tuberculosis; test: Bacteriostatic activity against rifampicin, isoniazid, streptomycin, ethambutol and pyrazinamide-resistant Mycobacterium tuberculosis MS-115 assessed as growth inhibition at 2 ug/mL relative to control; assay type: functional; conditions: read-out: GI
[7] = system: Mycobacterium tuberculosis; test: Bacteriostatic activity against rifampicin, isoniazid, streptomycin, ethambutol and pyrazinamide-resistant Mycobacterium tuberculosis MS-115 assessed as growth inhibition at 5 ug/mL relative to control; assay type: functional; conditions: read-out: GI
[8] = system: Mycobacterium tuberculosis; test: Bacteriostatic activity against rifampicin, isoniazid, streptomycin, ethambutol and pyrazinamide-resistant Mycobacterium tuberculosis MS-115 assessed as growth inhibition at 10 ug/mL relative to control; assay type: functional; conditions: read-out: GI

| SMILES | MIC99 [1] | growth inhibition (GI) [2] | inhibition of growth at 20 µg/mL [3] | inhibition of growth at 50 µg/mL [4] | inhibition of growth at 200 µg/mL [5] | inhibition of growth at 2 µg/mL [6] | inhibition of growth at 5 µg/mL [7] | inhibition of growth at 10 µg/mL [8] |
| --- | --- | --- | --- | --- | --- | --- | --- | --- |
| CO[C@H]1/C=C/O[C@@]2(C)Oc3c(C)c(O)c4c(O)c(c(/C=N/N5CCN(C)CC5)c(O)c4c3C2=O)NC(=O)/C(C)=C\C=C\[C@H](C)[C@H](O)[C@@H](C)[C@@H](O)[C@@H](C)[C@H](OC(C)=O)[C@@H]1C [RIFAMPIN] | inactive | inactive |  |  |  |  |  |  |
| CCCCCCCCCCCCOCc1cn([C@H]2C[C@H](N)[C@@H](CO)O2)c(=O)[nH]c1=O | 20 µg/mL (≈ 47 µM) |  | 100% | 100% | 100% |  |  |  |
| CC1COc2c(N3CCN(C)CC3)c(F)cc3c(=O)c(C(=O)O)cn1c23 (centres undefined) [OFLOXACIN] | 2 µg/mL (≈ 5.53 µM) |  |  |  |  | 100% |  |  |
| NNC(=O)c1ccncc1 [ISONIAZID] | inactive | inactive |  |  |  |  |  |  |
| CN[C@@H]1[C@H](O[C@H]2[C@H](O[C@H]3[C@H](O)[C@@H](O)[C@H](N=C(N)N)[C@@H](O)[C@@H]3N=C(N)N)O[C@@H](C)[C@]2(O)C=O)O[C@@H](CO)[C@H](O)[C@H]1O |  | inactive |  |  |  |  |  |  |
| NC(=O)c1cnccn1 |  | inactive |  |  |  |  |  |  |
| CC[C@@H](CO)NCCN[C@@H](CC)CO |  | inactive |  |  |  |  |  |  |
| CCCCCCCCCCc1cn(Cc2cn([C@H]3C[C@H](O)[C@@H](CO)O3)c(=O)[nH]c2=O)nn1 | 10 µg/mL (≈ 22.2 µM) |  | 100% | 100% |  |  | 75% | 99% |
| CCCCCCCCCCc1cn(Cc2cn([C@H]3C[C@H](O)[C@@H](CO)O3)c(=O)nc2N)nn1 | 50 µg/mL (≈ 111 µM) |  | 75% | 100% |  |  |  |  |
| CCCCCCCCCCCCc1cn(Cc2cn([C@H]3C[C@H](O)[C@@H](CO)O3)c(=O)[nH]c2=O)nn1 | 10 µg/mL (≈ 20.9 µM) |  | 99% | 100% |  |  | 90% | 99% |
| CCCCCCCCCCCCOCc1cn([C@H]2C[C@H](O)[C@@H](CO)O2)c(=O)[nH]c1=O | 50 µg/mL (≈ 117 µM) |  |  | 100% | 100% | 50% |  |  |
| CCCCCCCCCCCCc1cn(Cc2cn([C@H]3C[C@H](O)[C@@H](CO)O3)c(=O)nc2N)nn1 | 10 µg/mL (≈ 21 µM) |  | 100% | 100% |  |  |  | 99% |

From ChEMBL document CHEMBL2412960, “Inhibition of Mycobacterium tuberculosis strains H37Rv and MDR MS-115 by a new set of C5 modified pyrimidine nucleosides” (Bioorg Med Chem, 2013)
